A value given as a limit tells only on which side of the number the result lay.

Test [1] concerns the target T1, human prostanoid EP1 receptor (Homo sapiens, UniProt P34995).
T1 construct: expressed in transfected cells; host or cells: CHO-K1 cells, membrane fraction
T1 sequence (P34995 1-402): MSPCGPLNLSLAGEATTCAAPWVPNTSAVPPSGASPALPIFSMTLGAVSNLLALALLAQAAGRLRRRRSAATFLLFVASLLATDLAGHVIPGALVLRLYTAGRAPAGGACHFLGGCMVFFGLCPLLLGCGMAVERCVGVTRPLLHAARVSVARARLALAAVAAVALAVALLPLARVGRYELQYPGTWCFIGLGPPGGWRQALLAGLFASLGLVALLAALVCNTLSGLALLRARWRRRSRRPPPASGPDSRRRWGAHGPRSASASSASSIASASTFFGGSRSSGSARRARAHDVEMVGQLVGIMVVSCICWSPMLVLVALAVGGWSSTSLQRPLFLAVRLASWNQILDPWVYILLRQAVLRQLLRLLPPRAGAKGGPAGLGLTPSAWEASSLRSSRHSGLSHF
As to the kind of experiment: Binding assay for the human prostanoid EP1 receptor (competition with [3H]-PGE2). The following applies: [3H]-PGE2 competition, CHO-K1 cell membranes; averages of a number of experiments. On the procedure:
Binding Assay for the Human Prostanoid EP1 Receptor
Competition assay using [^3H]-PGE2
Compound potencies are determined using a radioligand binding assay. In this assay compound potencies are determined from their ability to compete with tritiated prostaglandin E2 ([^3H]-PGE2) for binding to the human EP1 receptor.
This assay utilises Chinese hamster ovary-K1 (CHO-K1) cells into which a stable vector containing the EP1 cDNA has previously been transfected. Cells are cultured in suitable flasks containing culture medium such as DMEM:F-12 supplemented with 10% v/v foetal calf serum, 2 mM L-glutamine, 0.25 mg/ml geneticin, […] puromycin and 10 μM indomethacin.
Cells are detached from the culture flasks by incubation in calcium and magnesium free phosphate buffered saline containing 1 mM disodium ethylenediaminetetraacetic acid (Na2EDTA) and 10 μM indomethacin for 5 min. The cells are isolated by centrifugation at 250×g for 5 mins and suspended in an ice cold buffer such as 50 mM Tris, 1 mM Na2EDTA, 140 mM NaCl, 10 μM indomethacin (pH 7.4). The cells are homogenised using a Polytron tissue disrupter (2×10s burst at full setting), centrifuged at 48,000×g for 20 mins and the pellet containing the membrane fraction is washed (optional) three times by suspension and centrifugation at 48,000×g for 20 mins. The final membrane pellet is suspended in an assay buffer such as 10 mM 2-[N-morpholino]ethanesulphonic acid, 1 mM Na2EDTA,10 mM MgCl2 (pH 6). Aliquots are frozen at −80° C. until required.
For the binding assay the cell membranes, competing compounds and [^3H]-PGE2 (3 nM final assay concentrations are incubated in a final volume of 100 μl for 30 min at 30° C. All reagents are prepared in assay buffer. Reactions are terminated by rapid vacuum filtration over GF/B filters using a Brandell cell harvester. The filters are washed with ice cold assay buffer, dried and the radioactivity retained on the filters is measured by liquid scintillation counting in Packard TopCount scintillation counter.
The data are analysed using non linear curve fitting techniques to determine the concentration of compound producing 50% inhibition of specific binding (IC50).

Test [2] addresses T2, human EP1 receptor (Homo sapiens, UniProt P34995).
T2 construct: expressed in transfected cells; host or cells: CHO-K1 cells, pCIN vector
T2 sequence (P34995 1-402): T1 sequence (P34995 1-402)
As to the kind of experiment: human EP1 calcium mobilisation assay (FLIPR, CHO-K1 cells). Type of test: cell-based. The settings on record: antagonism of PGE2-induced calcium mobilisation, CHO-K1 cells expressing EP1; averages of a number of experiments; read-out: functional pKi (converted). On the procedure:
(§1) Biological Activity at EP1 and EP3 Receptors
(§2) Briefly, the antagonist properties of compounds are assessed by their ability to inhibit the mobilisation of intracellular calcium ([Ca^2+]i) in response to activation of EP1 or EP3 receptors by the natural agonist hormone prostaglandin E2 (PGE2). Increasing concentrations of antagonist reduce the amount of calcium that a given concentration of PGE2 can mobilise. The net effect is to displace the PGE2 concentration-effect curve to higher concentrations of PGE2. The amount of calcium produced is assessed using a calcium-sensitive fluorescent dye such as Fluo-4, AM and a suitable instrument such as a Fluorimetric Imaging Plate Reader (FLIPR). Increasing amounts of [Ca^2+]i produced by receptor activation increase the amount of fluorescence produced by the dye and give rise to an increasing signal. The signal may be detected using the FLIPR instrument and the data generated may be analysed with suitable curve-fitting software.
The human EP1 or EP3 calcium mobilisation assay (hereafter referred to as ‘the calcium assay’) utilises Chinese hamster ovary-K1 (CHO-K1) cells into which a stable (pCIN; BioTechniques 20(1996): 102-110) vector containing either EP1 or EP3 cDNA has previously been transfected. Cells are cultured in suitable flasks containing culture medium such as DMEM:F-12 supplemented with 10% v/v foetal calf serum, 2 mM L-glutamine, 0.25 mg/ml geneticin, 100 μM flurbiprofen and 10 μg/ml puromycin.
For assay, cells are harvested using a proprietary reagent that dislodges cells such as Versene. Cells are re-suspended in a suitable quantity of fresh culture media for introduction into a 384-well plate. Following incubation for 24 hours at 37° C. the culture media is replaced with a medium containing Fluo-4 and the detergent pluronic acid, and a further incubation takes place. Concentrations of compounds are then added to the plate in order to construct concentration-effect curves. This may be performed on the FLIPR in order to assess the agonist properties of the compounds. Concentrations of PGE2 are then added to the plate in order to assess the antagonist properties of the compounds.
The data so generated may be analysed by means of a computerised curve-fitting routine. The concentration of compound that elicits a half-maximal inhibition of the calcium mobilisation induced by PGE2 (pIC50) may then be estimated.

Test [3] addresses T3, human EP3 receptor (Homo sapiens, UniProt P43115).
T3 construct: expressed in transfected cells; host or cells: CHO-K1 cells, pCIN vector
T3 sequence (P43115 1-390): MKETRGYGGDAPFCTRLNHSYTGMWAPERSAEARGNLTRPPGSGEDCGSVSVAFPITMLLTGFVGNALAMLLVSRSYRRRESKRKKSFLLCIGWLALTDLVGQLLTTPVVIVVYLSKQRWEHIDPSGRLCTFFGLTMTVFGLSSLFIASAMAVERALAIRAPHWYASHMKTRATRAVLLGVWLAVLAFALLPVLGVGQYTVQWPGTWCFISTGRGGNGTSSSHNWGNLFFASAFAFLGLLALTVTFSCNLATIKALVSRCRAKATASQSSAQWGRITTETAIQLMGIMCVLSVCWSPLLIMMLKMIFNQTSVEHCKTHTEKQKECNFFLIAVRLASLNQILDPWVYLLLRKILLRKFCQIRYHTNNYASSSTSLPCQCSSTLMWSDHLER
Description: human EP3 calcium mobilisation assay (FLIPR, CHO-K1 cells). Type of test: cell-based. The following applies: antagonism of PGE2-induced calcium mobilisation, CHO-K1 cells expressing EP3; averages of a number of experiments; read-out: functional pKi (converted). On the procedure:
as §1
as §2, with “software. […]” for “software.”
For assay, cells are harvested using a proprietary reagent that dislodges cells such as Versene. Cells are re-suspended in a suitable quantity of fresh culture media for introduction into a 384-well plate. […]
The data so generated may be analysed by means of a computerised curve-fitting routine. […]
In general terms: Calcium assays in cells follow changes in intracellular calcium, usually with a dye or a luminescent sensor.

The term IC50 denotes the concentration that gives 50% inhibition. The low end stands for inhibition by little substance, the high end for a need for much substance. Turning to `CC(C)Cc1cn(-c2ccc(C(=O)O)o2)c2cc(Cl)ccc12` [Example 18, 5-[6-Chloro-3-(2-methylpropyl)-1H-indol-1-yl]-2-furancarboxylic acid], the IC50 in test [1] is no more than 100 nM. For the same compound, the Ki in test [2] was no more than 100 nM.
For the compound `CC(C)Cc1cn(-c2nc(C(=O)O)cs2)c2cc(Cl)ccc12` [Example 17, 2-[6-Chloro-3-(2-methylpropyl)-1H-indol-1-yl]-1,3-thiazole-4-carboxylic acid], the IC50 in test [1] was no more than 100 nM. Also, the Ki in test [2] is no more than 100 nM.
Turning to `CC(C)Cc1nn(-c2nc(C(=O)O)cs2)c2cc(Cl)ccc12` [Example 11, 2-[6-Chloro-3-(2-methylpropyl)-1H-indazol-1-yl]-1,3-thiazole-4-carboxylic acid], in test [1], the half-maximal inhibitory concentration (IC50) was no more than 100 nM. For the same compound, the Ki in test [2] is no more than 100 nM.
In the case of `CC(C)(C)Cc1cn(-c2nc(C(=O)O)cs2)c2cc(Cl)ccc12` [Example 12, 2-[6-Chloro-3-(2,2-dimethylpropyl)-1H-indol-1-yl]-1,3-thiazole-4-carboxylic acid], in test [1], the IC50 is no more than 100 nM. Moreover, the Ki in test [2] is no more than 100 nM.
Take `CC(C)Cc1cn(-c2nc(C(=O)NS(=O)(=O)c3ccccc3)cs2)c2cc(Cl)ccc12` [Example 23, 2-[6-Chloro-3-(2-methylpropyl)-1H-indol-1-yl]-N-(phenylsulfonyl)-1,3-thiazole-4-carboxamide]: the IC50 in test [1] was no more than 100 nM. Besides, in test [2], the Ki is no more than 100 nM.
The compound `CC(C)Cc1cn(-c2nc(C(=O)O)cs2)c2cc(C(F)(F)F)ccc12` [Example 13, 2-[3-(2-Methylpropyl)-6-(trifluoromethyl)-1H-indol-1-yl]-1,3-thiazole-4-carboxylic acid] gave an IC50 in test [1] of no more than 100 nM. The Ki in test [2] is no more than 100 nM.
For `CC(C)Cc1cn(-c2nc(CC(=O)O)cs2)c2cc(Cl)ccc12` [Example 15, {2-[6-Chloro-3-(2-methylpropyl)-1H-indol-1-yl]-1,3-thiazol-4-yl}acetic acid], in test [2], the Ki is no more than 100 nM.
On to `CC(C)Cc1cn(-c2ccc(C(=O)O)s2)c2cc(Cl)ccc12` [Example 22, 5-[6-Chloro-3-(2-methylpropyl)-1H-indol-1-yl]-2-thiophenecarboxylic acid], for which, in test [1], the IC50 was no more than 100 nM. Besides, in test [2], the Ki is no more than 100 nM.
With `CC(C)Cc1cn(-c2cccc(C(=O)O)n2)c2cc(Cl)ccc12` [Example 19, 6-[6-Chloro-3-(2-methylpropyl)-1H-indol-1-yl]-2-pyridinecarboxylic acid], in test [1], the IC50 is no more than 100 nM. Moreover, in test [2], the Ki was no more than 100 nM.
Consider `Cc1ccc2c(CC(C)C)cn(-c3nc(C(=O)O)cs3)c2c1` [Example 24], for which the IC50 in test [1] was no more than 100 nM. In addition, the Ki in test [2] was no more than 100 nM.
For `CC(C)C(=O)c1cn(-c2nc(C(=O)O)cs2)c2cc(Cl)ccc12` [Example 7, 2-[6-Chloro-3-(2-methylpropanoyl)-1H-indol-1-yl]-1,3-thiazole-4-carboxylic acid], the Ki is no less than 2000 nM in test [3] and no more than 100 nM in test [2].
As for `O=C(O)c1csc(-n2cc(Cc3ccccc3)c3ccc(Cl)cc32)n1` [Example 8, 2-[6-Chloro-3-(phenylmethyl)-1H-indol-1-yl]-1,3-thiazole-4-carboxylic acid], the Ki in test [2] is no more than 100 nM.
In the case of `CCCc1cn(-c2nc(C(=O)O)cs2)c2cc(Cl)ccc12` [Example 1, 2-(6-Chloro-3-propyl-1H-indol-1-yl)-1,3-thiazole-4-carboxylic acid], in test [1], the IC50 was no more than 100 nM. The Ki in test [2] was no more than 100 nM.
Take `CC(C)c1cn(-c2nc(C(=O)O)cs2)c2cc(Cl)ccc12` [Example 3, 2-[6-Chloro-3-(1-methylethyl)-1H-indol-1-yl]-1,3-thiazole-4-carboxylic acid]: in test [1], the IC50 is no more than 100 nM. Further, the Ki in test [2] was no more than 100 nM.
As for `CC(C)Cc1cn(-c2nc(C(=O)O)cs2)c2ccccc12` [Example 10, 2-[3-(2-Methylpropyl)-1H-indol-1-yl]-1,3-thiazole-4-carboxylic acid], the Ki in test [2] is no more than 100 nM.
Turning to `CC(C)Cc1cn(-c2nc(C(=O)O)co2)c2cc(Cl)ccc12` [Example 5, 2-[6-Chloro-3-(2-methylpropyl)-1H-indol-1-yl]-1,3-oxazole-4-carboxylic acid], in test [1], the IC50 was no more than 100 nM. Moreover, the Ki in test [2] was no more than 100 nM.
The compound `CC(C)(C)CCc1cn(-c2nc(C(=O)O)cs2)c2cc(Cl)ccc12` [Example 2, 2-[6-Chloro-3-(3,3-dimethylbutyl)-1H-indol-1-yl]-1,3-thiazole-4-carboxylic acid] showed an IC50 in test [1] of no more than 100 nM. The Ki in test [2] was no more than 100 nM.
`CC(C)Cc1cn(-c2nc(C(=O)O)cs2)c2cc(F)ccc12` [Example 16, 2-[6-Fluoro-3-(2-methylpropyl)-1H-indol-1-yl]-1,3-thiazole-4-carboxylic acid]: the IC50 in test [1] is no more than 100 nM. Further, the Ki in test [2] was no more than 100 nM.
As to `CC(C)Cc1cn(Cc2nc(C(=O)O)cs2)c2cc(Cl)ccc12` [Example 6, 2-{[6-Chloro-3-(2-methylpropyl)-1H-indol-1-yl]methyl}-1,3-thiazole-4-carboxylic acid], the IC50 in test [1] is no more than 100 nM. Besides, the Ki in test [2] was no more than 100 nM.
For `CC(C)Cc1cn(-c2nc(C(=O)O)cs2)c2cc(Br)ccc12` [Example 4, 2-[6-Bromo-3-(2-methylpropyl)-1H-indol-1-yl]-1,3-thiazole-4-carboxylic acid], the IC50 in test [1] is no more than 100 nM. In addition, the Ki in test [2] was no more than 100 nM.
Consider `CC(C)Cc1cn(-c2ncc(C(=O)O)s2)c2cc(Cl)ccc12` [Example 21, 2-[6-Chloro-3-(2-methylpropyl)-1H-indol-1-yl]-1,3-thiazole-5-carboxylic acid], for which the IC50 in test [1] is no more than 100 nM. For the same compound, in test [2], the Ki was no more than 100 nM.

(Values after patent US20100016371A1, “Indole Compounds” (Glaxo Group Limited, priority 2006, published 2010).)
